Values after ≈ are worked out from the molar mass of the structure shown.
Tests used:
[1] = test system: Staphylococcus aureus ATCC29213; assay: Minimum Inhibitory Concentration (MIC) testing, broth microdilution, Staphylococcus aureus; format: cell-based; settings: Staphylococcus aureus ATCC29213; for MIC: read-out: Staphylococcus aureus MICs Activity
Protocol: (§1) Compounds of this invention were tested for antimicrobial activity by susceptibility testing in liquid media. MICs for compounds against each strain were determined by a broth microdilution method according to the National Committee for Clinical Laboratory Standards (NCCLS) guidelines. (NCCLS. 2000. Methods for dilution antimicrobial susceptibility tests for bacteria that grow aerobically—fifth edition. Approved standard M7-A5. NCCLS, Wayne, Pa.)
(§2) Briefly, test compounds are prepared in 100 μl of 1.6% DMSO solution in multiwell plates. Several bacterial colonies from a freshly streaked plate are transferred to an appropriate rich broth, such as Mueller Hinton. The cell suspension is adjusted to an optical density of 0.09 and further diluted 1:100 with warm 2× broth. This cell suspension is dispensed into the wells containing compound solution so that the final volume is 200 μl. The plates are incubated overnight (16-20 hours) at 37° C. and turbidity is scored by eye and quantified spectrophotometrically. The MIC is defined as the lowest concentration inhibiting visible growth.
Some of the compounds of the Examples were also tested for activity against the pathogenic organism Staphylococcus aureus ATCC29213. […] Activities were again scored as ‘A’ if the MIC was ≦8 micrograms/ml, ‘B’ if the MIC was 16 to 64 micrograms/ml and ‘C’ if the MIC was greater than 64 micrograms/ml.

Bacillus subtilis 168CA = assay: Minimum Inhibitory Concentration (MIC) testing, broth microdilution, Bacillus subtilis; format: cell-based; settings: Bacillus subtilis 168CA; for MIC: read-out: Bacillus subtilis MICs Activity
Protocol: as §1, §2
Activities were scored as ‘A’ if the MIC was ≦8 micrograms/ml, ‘B’ if the MIC was 16 to 64 micrograms/ml and ‘C’ if the MIC was greater than 64 micrograms/ml.

Row | SMILES | MIC [1] | MIC (Bacillus subtilis 168CA) | Staphylococcus aureus MICs Activity [1] | Bacillus subtilis MICs Activity (Bacillus subtilis 168CA)
1 | NC(=O)c1c(F)ccc(OCc2nc(-c3ccccc3)co2)c1F [Example 310, 2,6-Difluoro-3-(4-phenyl-oxazol-2-ylmethoxy)-benzamide] | 16 to 64 µg/mL (≈ 48.4 to 194 µM) | < 8 µg/mL |  | 
2 | C=CCCCCCCOc1cccc(C(N)=O)c1 [Example 12, 3-(7-Octenyloxy)benzenecarboxamide] | < 8 µg/mL | 16 to 64 µg/mL (≈ 64.7 to 259 µM) |  | 
3 | COc1ccc(-c2nc(COc3ccc(F)c(C(N)=O)c3F)co2)cc1 [Example 293, 2,6-Difluoro-3-[2-(4-methoxy-phenyl)-oxazol-4-ylmethoxy]-benzamide] | < 8 µg/mL | < 8 µg/mL |  | 
4 | CCCCCCOc1nccc(C(N)=O)c1Cl [Example 174, 3-Chloro-2-(hexyloxy)isonicotinamide] | 16 to 64 µg/mL (≈ 62.3 to 249 µM) | 16 to 64 µg/mL (≈ 62.3 to 249 µM) |  | 
5 | NC(=O)c1c(F)ccc(OCc2nc3cc(-c4cccc(O)c4)ccc3s2)c1F [Example 136, 2,6-Difluoro-3-[5-(3-hydroxy-phenyl)-benzothiazol-2-ylmethoxy]-benzamide] | < 8 µg/mL | < 8 µg/mL |  | 
6 | COc1ccc(-c2nc(COc3ccc(F)c(C(N)=O)c3F)sc2C#N)cc1 [Example 289, 3-[5-Cyano-4-(4-methoxy-phenyl)-thiazol-2-ylmethoxy]-2,6-difluoro-benzamide] | < 8 µg/mL | < 8 µg/mL |  | 
7 | NC(=O)c1c(F)ccc(OCc2nc(Cc3ccccc3)cs2)c1F [Example 137, 3-(4-Benzyl-thiazol-2-ylmethoxy)-2,6-difluoro benzamide] |  |  | B (‘B’ if the MIC was 16 to 64 micrograms/ml) | B (‘B’ if the MIC was 16 to 64 micrograms/ml)
8 | NC(=O)c1c(F)ccc(OCc2nc3cc(Cl)ccc3s2)c1Cl [Example 221, 2-Chloro-3-[(5-chloro-1,3-benzothiazol-2-yl)methoxy]-6-fluorobenzenecarboxamide] | < 8 µg/mL | < 8 µg/mL |  | 
9 | CCCCCCCCCOc1ccc(F)c(C(N)=O)c1F [Example 82, 2,6-Difluoro-3-(nonyloxy)benzenecarboxamide] | < 8 µg/mL | < 8 µg/mL |  | 
10 | CCCCOC(=O)COc1ccc(F)c(C(N)=O)c1F [Example 83, Butyl 2-[3-(aminocarbonyl)-2,4-difluorophenoxy]acetate] | 16 to 64 µg/mL (≈ 55.7 to 223 µM) | < 8 µg/mL |  | 
11 | CC/C=C\CCCCOc1ccc(F)c(C(N)=O)c1 [Example 73, 2-Fluoro-5-[(Z)-5-octenyloxy]benzenecarboxamide] | < 8 µg/mL | < 8 µg/mL |  | 
12 | NC(=O)c1c(F)ccc(OCc2cncs2)c1F [Example 189, 2,6-Difluoro-3-(1,3-thiazol-5-ylmethoxy)benzenecarboxamide] | > 64 µg/mL | > 64 µg/mL |  | 
13 | CC(C)=CCC/C(C)=C/CCC(C)COc1cccc(C(N)=O)c1 (stereo not shown) [Example 55, 3-{[(5E)-2,6,10-Trimethyl-5,9-undecadienyl]oxy}benzenecarboxamide] | < 8 µg/mL | < 8 µg/mL |  | 
14 | COc1ccc(-c2nc(COc3ccc(F)c(C(N)=O)c3F)sc2-c2ccc(N)cc2)cc1 [Example 285, 2,6-Difluoro-3-[5-(4-amino-phenyl)-4-(4-methoxy-phenyl)-thiazol-2-ylmethoxy]-benzamide] | < 8 µg/mL | < 8 µg/mL |  | 
15 | NC(=O)c1cccc(OCn2cccn2)c1 [Example 168, 3-(Pyrazol-1-ylmethoxy)-benzamide] | > 64 µg/mL | > 64 µg/mL |  | 
16 | Cc1cccc(COc2cccc(C(N)=O)c2)c1 [Example 29, 3-[(3-Methylbenzyl)oxy]benzenecarboxamide] | 16 to 64 µg/mL (≈ 66.3 to 265 µM) | 16 to 64 µg/mL (≈ 66.3 to 265 µM) |  | 
17 | NC(=O)c1c(F)ccc(OCc2csc(-c3ccc(OC(F)(F)F)cc3)n2)c1F [Example 307, 2,6-Difluoro-3-[2-(4-trifluoromethoxy-phenyl)-thiazol-4-ylmethoxy]-benzamide] | < 8 µg/mL | < 8 µg/mL |  | 
18 | CCCCCC#CCOc1cccc(C(N)=O)c1 [Example 31, 3-(2-Octynyloxy)benzenecarboxamide] | 16 to 64 µg/mL (≈ 65.2 to 261 µM) | 16 to 64 µg/mL (≈ 65.2 to 261 µM) |  | 
19 | NC(=O)c1c(F)ccc(OCc2csc3ccccc23)c1F [Example 202, 3-(1-Benzothiophen-3-ylmethoxy)-2,6-difluorobenzenecarboxamide] | 16 to 64 µg/mL (≈ 50.1 to 200 µM) | < 8 µg/mL |  | 
20 | Cc1cccc2ccc(COc3ccc(F)c(C(N)=O)c3F)nc12 [Example 146, 2,6-Difluoro-3-(8-methyl-quinolin-2-ylmethoxy)-benzamide] | 16 to 64 µg/mL (≈ 48.7 to 195 µM) | < 8 µg/mL |  | 
21 | NC(=O)c1c(F)ccc(OCc2csc(-c3cccc(O)c3)n2)c1F [Example 308, 2,6-Difluoro-3-[2-(3-hydroxy-phenyl)-thiazol-4-ylmethoxy]-benzamide] | 16 to 64 µg/mL (≈ 44.2 to 177 µM) | < 8 µg/mL |  | 
22 | NC(=O)c1c(F)ccc(OCc2nc3cc(-c4ccc(O)cc4)ccc3s2)c1F [Example 140, 2,6-Difluoro-3-[5-(4-hydroxy-phenyl)-benzothiazol-2-ylmethoxy]-benzamide] | < 8 µg/mL | > 64 µg/mL |  | 
23 | Cc1ccc2nc(COc3ccc(F)c(C(N)=O)c3F)ccc2c1 [Example 97, 2,6-Difluoro-3-(6-methyl-quinolin-2-ylmethoxy)-benzamide] |  | < 8 µg/mL |  | 

Row | SMILES | MIC [1] | MIC (Bacillus subtilis 168CA) | Staphylococcus aureus MICs Activity [1] | Bacillus subtilis MICs Activity (Bacillus subtilis 168CA)
24 | COCCOc1cccc(C(N)=O)c1 [Example 9, 3-(2-Methoxyethoxy)benzenecarboxamide] |  | > 64 µg/mL |  | 
25 | NC(=O)c1c(F)ccc(OCc2ccc3cc(Cl)ccc3n2)c1F [Example 110, 3-(6-Chloro-quinolin-2-ylmethoxy)-2,6-difluoro-benzamide] |  | < 8 µg/mL |  | 
26 | CCOC(=O)COc1cccc(C(N)=O)c1 [Example 33, Ethyl 2-[3-(aminocarbonyl)phenoxy]acetate] |  | > 64 µg/mL |  | 
27 | CC(C)CCOc1cccc(C(N)=O)c1 [Example 13, 3-(Isopentyloxy)benzenecarboxamide] |  | 16 to 64 µg/mL (≈ 77.2 to 309 µM) |  | 
28 | NC(=O)c1c(F)ccc(OCc2cccc([N+](=O)[O-])c2)c1F [Example 332, 2,6-Difluoro-3-(3-nitro-benzyloxy)-benzamide] |  | 16 to 64 µg/mL (≈ 51.9 to 208 µM) |  | 
29 | NC(=O)c1c(F)ccc(OCc2nc(-c3ccccc3Cl)no2)c1F [Example 254, 3-[3-(2-Chlorophenyl)-1,2,4-oxadiazol-5-yl]methoxy-2,6-difluorobenzenecarboxamide] |  | < 8 µg/mL |  | 
30 | CC(C)CCCOc1cccc(C(N)=O)c1 [Example 14, 3-[(4-Methylpentyl)oxy]benzenecarboxamide] |  | 16 to 64 µg/mL (≈ 72.3 to 289 µM) |  | 
31 | NC(=O)c1c(F)ccc(OCc2nnc(-c3ccc(Cl)cc3)s2)c1F [Example 234, 3-[5-(4-Chlorophenyl)-1,3,4-thiadiazol-2-yl]methoxy-2,6-difluorobenzenecarboxamide] |  | < 8 µg/mL |  | 
32 | NC(=O)c1c(F)ccc(OCc2cccc(OCc3ccccc3)c2)c1F [Example 154, 3-(3-Benzyloxy-benzyloxy)-2,6-difluoro-benzamide] |  | < 8 µg/mL |  | 
33 | NC(=O)c1cccc(OCC2CC2)c1 [Example 4, 3-(Cyclopropylmethoxy)benzenecarboxamide] |  | > 64 µg/mL |  | 
34 | Cc1cccc(-c2ccc3sc(COc4ccc(F)c(C(N)=O)c4F)nc3c2)c1 [Example 142, 2,6-Difluoro-3-(5-m-tolyl-benzothiazol-2-ylmethoxy)-benzamide] |  | < 8 µg/mL |  | 
35 | NC(=O)c1cccc(OCCCCOc2ccccc2)c1 [Example 10, 3-(4-Phenoxybutoxy)benzenecarboxamide] |  | < 8 µg/mL |  | 
36 | NC(=O)c1c(F)ccc(OCc2nc(-c3cccc(Cl)c3)no2)c1F [Example 255, 3-[3-(3-Chlorophenyl)-1,2,4-oxadiazol-5-yl]methoxy-2,6-difluorobenzenecarboxamide] |  | < 8 µg/mL |  | 
37 | COc1ccc(CCOc2cccc(C(N)=O)c2)cc1 [Example 35, 3-[(4-Methoxyphenethyl)oxy]benzenecarboxamide] |  | 16 to 64 µg/mL (≈ 59 to 236 µM) |  | 
38 | CCCCC#CCCCCOc1cccc(C(N)=O)c1 [Example 48, 3-(5-Decynyloxy)benzenecarboxamide] |  | < 8 µg/mL |  | 
39 | NC(=O)c1c(F)ccc(OCc2ccc3cccnc3c2)c1F [Example 330, 2,6-Difluoro-3-(quinolin-7-ylmethoxy)-benzamide] |  | 16 to 64 µg/mL (≈ 50.9 to 204 µM) |  | 
40 | Cc1sc(-c2ccccc2)nc1CCCOc1ccc(F)c(C(N)=O)c1F [Example 160, 2,6-Difluoro-3-[3-(5-methyl-2-phenyl-thiazol-4-yl)-propoxy]-benzamide] |  | < 8 µg/mL |  | 
41 | COC(=O)CCCCCCCCCOc1cccc(C(N)=O)c1 [Example 38, Methyl 10-[3-(aminocarbonyl)phenoxy]decanoate] |  | < 8 µg/mL |  | 
42 | NC(=O)c1c(F)ccc(OCc2nc(-c3cccc(C(F)(F)F)c3)no2)c1F [Example 258, 2,6-Difluoro-3-(3-[3-(trifluoromethyl)phenyl]-1,2,4-oxadiazol-5-ylmethoxy)benzenecarboxamide] |  | < 8 µg/mL |  | 
43 | NC(=O)c1c(F)ccc(OCc2ccc3ccccc3c2)c1F [Example 113, 2,6-Difluoro-3-(naphthalen-2-ylmethoxy)-benzamide] |  | < 8 µg/mL |  | 
44 | COc1ccc(-c2noc(COc3ccc(F)c(C(N)=O)c3F)n2)c(OC)c1 [Example 261, 3-[3-(2,4-Dimethoxyphenyl)-1,2,4-oxadiazol-5-yl]methoxy-2,6-difluorobenzenecarboxamide] |  | 16 to 64 µg/mL (≈ 40.9 to 164 µM) |  | 
45 | CCCOCCOc1cccc(C(N)=O)c1 [Example 16, 3-(2-Propoxyethoxy)benzenecarboxamide] |  | > 64 µg/mL |  | 
